From patent US20150246136A1, “NOVEL BINDER-DRUG CONJUGATES (ADCs) AND USE OF SAME” (priority 2011, published 2015)
Structures can show the parent of a compound that is named as a salt. Square brackets hold non-standard residues; d marks the D form. Peptide text beside a SMILES is read from it. * marks the point of attachment. X2 = CC(C)[C@@H](C(=O)*)N(C)CCCCCCN1C(=O)CC(SC[C@H](N)C(=O)O)C1=O; X1 = CC(C)[C@@H](C(=O)*)N(C)CCCCCC(=O)NCCCC[C@H](N)C(=O)O; Dolaproine = CO[C@@H]([C@@H]1CCCN1)[C@@H](C)C(=O)O; Dil = CC[C@H](C)[C@H](NC)[C@@H](CC(=O)O)OC; X5 = C[C@@H](N*)[C@@H](O)c1ccccc1; Oxazinan2yl(1,2) = C1CCN(*)OC1; NMeV = CN[C@H](C(=O)O)C(C)C

How the values were obtained:
[1] = tested on: Caco2 cells; test: Cell permeability, flux assay using Caco2 cells; assay type: in vitro ADME; conditions: 2 hours
Protocol: C-3.3 In Vitro Tests for Determining Cell Permeability
The cell permeability of a substance can be investigated by means of in vitro testing in a flux assay using Caco2 cells (M. D. Troutman and D. R. Thakker, Pharm. Res. 20(8):1210-1224 (2003)). To do so, the cells are cultured on 24-hole filter plates for 15-16 days. To determine the permeation, the respective test substance in a HEPES buffer was applied to the cells either apically (A) or basally (B) and incubated for 2 hours. After 0 h and 2 h, samples were taken from the cis and trans compartments. The samples were separated by HPLC (Agilent 1200, Biblingen, Germany) using reverse-phase columns. The HPLC system was linked to a triple quadrupole mass spectrometer API 4000 (Applied Biosystems Applera, Darmstadt, Germany) via a turbo ion spray interface. Permeability was evaluated on the basis of a Papp value which was calculated by means of the formula published by Schwab et al. (D. Schwab et al., J. Med. Chem. 46, 1716-1725 (2003)).
The permeability of B to A (Papp (B-A)) is of crucial importance for toxophores but are released intracellularly: the lower this permeability, the longer is the dwell time of the substance in the cell after intracellular release and thus also the time available for interaction with the biochemical target (here tubulin).

[2] = tested on: various carcinoma cell lines; conditions: cited from earlier work

Row | Structure (SMILES) | Papp (B-A) [1] | further results
1 | CC[C@H](C)[C@@H]([C@@H](CC(=O)N1CCC[C@H]1[C@H](OC)[C@@H](C)C(=O)N[C@@H](Cc1c[nH]c2ccccc12)C(N)=O)OC)N(C)C(=O)[C@@H](NC(=O)[C@H](C(C)C)N(C)CCCC(=O)NNC(=O)CCCCCN1C(=O)CC(SC[C@H](N)C(=O)O)C1=O)C(C)C (stereo partly drawn) [Example 233, N-(4-{2-[6-(3-{[(2R)-2-amino-2-carboxyethyl]sulfanyl}-2,5-dioxopyrrolidin-1-yl)hexanoyl]hydrazino}-4-oxobutyl)-N-methyl-L-valyl-N-[(3R,4S,5S)-1-{(2S)-2-[(1R,2R)-3-{[(2S)-1-amino-3-(1H-indol-3-yl)-1-oxopropan-2-yl]amino}-1-methoxy-2-methyl-3-oxopropyl]pyrrolidin-1-yl}-3-methoxy-5-methyl-1-oxoheptan-4-yl]-N-methyl-L-valinamide] | 0.2 ×10⁻⁶ cm/s | –
2 | CC[C@H](C)[C@@H]([C@@H](CC(=O)N1CCC[C@H]1[C@H](OC)[C@@H](C)C(=O)N[C@@H](Cc1c[nH]c2ccccc12)C(=O)O)OC)N(C)C(=O)[C@@H](NC(=O)[C@H](C(C)C)N(C)CCCC(=O)NNC(=O)CCCCCN1C(=O)CC(SC[C@H](N)C(=O)O)C1=O)C(C)C (stereo partly drawn) [Example 234, N-(4-{2-[6-(3-{[(2R)-2-amino-2-carboxyethyl]sulfanyl}-2,5-dioxopyrrolidin-1-yl)hexanoyl]hydrazino}-4-oxobutyl)-N-methyl-L-valyl-N-[(3R,4S,5S)-1-{(2S)-2-[(1R,2R)-3-{[(1S)-1-carboxy-2-(1H-indol-3-yl)ethyl]amino}-1-methoxy-2-methyl-3-oxopropyl]pyrrolidin-1-yl}-3-methoxy-5-methyl-1-oxoheptan-4-yl]-N-methyl-L-valinamide] | 0.16 ×10⁻⁶ cm/s | –
3 | CC[C@H](C)[C@@H]([C@@H](CC(=O)N1CCC[C@H]1[C@H](OC)[C@@H](C)C(=O)N[C@@]1(C(=O)N2CCCCO2)C[C@@H]1c1ccccc1)OC)N(C)C(=O)[C@@H](NC(=O)[C@H](C(C)C)N(C)CCCC(=O)NNC(=O)CCCCCN1C(=O)CC(SC[C@H](N)C(=O)O)C1=O)C(C)C (stereo partly drawn) [Example 235, N-(4-{2-[6-(3-{[(2R)-2-amino-2-carboxyethyl]sulfanyl}-2,5-dioxopyrrolidin-1-yl)hexanoyl]hydrazino}-4-oxobutyl)-N-methyl-L-valyl-N-[(3R,4S,5S)-3-methoxy-1-{(2S)-2-[(1R,2R)-1-methoxy-2-methyl-3-{[(1S,2R)-1-(1,2-oxazinan-2-ylcarbonyl)-2-phenylcyclopropyl]amino}-3-oxopropyl]pyrrolidin-1-yl}-5-methyl-1-oxoheptan-4-yl]-N-methyl-L-valinamide] | 0.25 ×10⁻⁶ cm/s | –
4 | CC[C@H](C)[C@@H]([C@@H](CC(=O)N1CCC[C@H]1[C@H](OC)[C@@H](C)C(=O)N[C@@H](Cc1c[nH]c2ccccc12)C(N)=O)OC)N(C)C(=O)[C@@H](NC(=O)[C@H](C(C)C)N(C)CCCCCCN1C(=O)CC(SC[C@H](N)C(=O)O)C1=O)C(C)C (stereo partly drawn) [Example 236, N-[6-(3-{[(2R)-2-amino-2-carboxyethyl]sulfanyl}-2,5-dioxopyrrolidin-1-yl)hexyl]-N-methyl-L-valyl-N-[(3R,4S,5S)-1-{(2S)-2-[(1R,2R)-3-{[(2S)-1-amino-3-(1H-indol-3-yl)-1-oxopropan-2-yl]amino}-1-methoxy-2-methyl-3-oxopropyl]pyrrolidin-1-yl}-3-methoxy-5-methyl-1-oxoheptan-4-yl]-N-methyl-L-valinamide] (X2-V[Dil][Dolaproine]W-NH2) | 0.5 ×10⁻⁶ cm/s | –
5 | CC[C@H](C)[C@@H]([C@@H](CC(=O)N1CCC[C@H]1[C@H](OC)[C@@H](C)C(=O)N[C@@H](Cc1c[nH]c2ccccc12)C(=O)O)OC)N(C)C(=O)[C@@H](NC(=O)[C@H](C(C)C)N(C)CCCCCCN1C(=O)CC(SC[C@H](N)C(=O)O)C1=O)C(C)C (stereo partly drawn) [Example 237, N-[6-(3-{[(2R)-2-amino-2-carboxyethyl]sulfanyl}-2,5-dioxopyrrolidin-1-yl)hexyl]-N-methyl-L-valyl-N-[(3R,4S,5S)-1-{(2S)-2-[(1R,2R)-3-{[(1S)-1-carboxy-2-(1H-indol-3-yl)ethyl]amino}-1-methoxy-2-methyl-3-oxopropyl]pyrrolidin-1-yl}-3-methoxy-5-methyl-1-oxoheptan-4-yl]-N-methyl-L-valinamide] (X2-V[Dil][Dolaproine]W-OH) | 0.1 ×10⁻⁶ cm/s | –
6 | CC[C@H](C)[C@@H]([C@@H](CC(=O)N1CCC[C@H]1[C@H](OC)[C@@H](C)C(=O)N[C@@H](Cc1c[nH]c2ccccc12)C(=O)NCc1ccccc1)OC)N(C)C(=O)[C@@H](NC(=O)[C@H](C(C)C)N(C)CCCC(=O)NNC(=O)CCCCCN1C(=O)CC(SC[C@H](N)C(=O)O)C1=O)C(C)C (stereo partly drawn) [Example 239, N-(4-{2-[6-(3-{[(2R)-2-amino-2-carboxyethyl]sulfanyl}-2,5-dioxopyrrolidin-1-yl)hexanoyl]hydrazino}-4-oxobutyl)-N-methyl-L-valyl-N-[(3R,4S,5S)-1-{(2S)-2-[(1R,2R)-3-{[(2S)-1-(benzylamino)-3-(1H-indol-3-yl)-1-oxopropan-2-yl]amino}-1-methoxy-2-methyl-3-oxopropyl]pyrrolidin-1-yl}-3-methoxy-5-methyl-1-oxoheptan-4-yl]-N-methyl-L-valinamide] | 0.7 ×10⁻⁶ cm/s | –
7 | CC[C@H](C)[C@@H]([C@@H](CC(=O)N1CCC[C@H]1[C@H](OC)[C@@H](C)C(=O)N[C@@H](Cc1c[nH]c2ccccc12)C(=O)N1CCCCO1)OC)N(C)C(=O)[C@@H](NC(=O)[C@H](C(C)C)N(C)CCCCCC(=O)NCCCC[C@H](N)C(=O)O)C(C)C [Example 277, N-(6-{[(5S)-5-amino-5-carboxypentyl]amino}-6-oxohexyl)-N-methyl-L-valyl-N-[(3R,4S,5S)-1-{(2S)-2-[(1R,2R)-3-{[(2S)-3-(1H-indol-3-yl)-1-(1,2-oxazinan-2-yl)-1-oxopropan-2-yl]amino}-1-methoxy-2-methyl-3-oxopropyl]pyrrolidin-1-yl}-3-methoxy-5-methyl-1-oxoheptan-4-yl]-N-methyl-L-valinamide trifluoroacetate] (X1-V[Dil][Dolaproine]W-{Oxazinan2yl(1,2)}) | 0.2 ×10⁻⁶ cm/s | –
8 | CC[C@H](C)[C@@H]([C@@H](CC(=O)N1CCC[C@H]1[C@H](OC)[C@@H](C)C(=O)N[C@@H](Cc1c[nH]c2ccccc12)C(=O)O)OC)N(C)C(=O)[C@@H](NC(=O)[C@H](C(C)C)N(C)CCCCCC(=O)NCCCC[C@H](N)C(=O)O)C(C)C [Example 278, N-(6-{[(5S)-5-amino-5-carboxypentyl]amino}-6-oxohexyl)-N-methyl-L-valyl-N-[(3R,4S,5S)-1-{(2S)-2-[(1R,2R)-3-{[(1S)-1-carboxy-2-(1H-indol-3-yl)ethyl]amino}-1-methoxy-2-methyl-3-oxopropyl]pyrrolidin-1-yl}-3-methoxy-5-methyl-1-oxoheptan-4-yl]-N-methyl-L-valinamide] (X1-V[Dil][Dolaproine]W-OH) | 0.1 ×10⁻⁶ cm/s | –
9 | CC[C@H](C)[C@@H]([C@@H](CC(=O)N1CCC[C@H]1[C@H](OC)[C@@H](C)C(=O)N[C@@H](Cc1ccccc1)C(=O)O)OC)N(C)C(=O)[C@@H](NC(=O)[C@@H](NC)C(C)C)C(C)C [MMAF, Monomethylauristatin F] (H-[NMeV]V[Dil][Dolaproine]F-OH) | – | antiproliferative effect ([2]; in comparison with MMAE): only a moderate antiproliferative effect
10 | CC[C@H](C)[C@@H]([C@@H](CC(=O)N1CCC[C@H]1[C@H](OC)[C@@H](C)C(=O)N[C@@H](Cc1ccccc1)C(=O)OC)OC)N(C)C(=O)[C@@H](NC(=O)[C@@H](NC)C(C)C)C(C)C [MMAF-OMe, Monomethylauristatin F-methylester] (H-[NMeV]V[Dil][Dolaproine]F-OMe) | – | in vitro cytotoxicity ([2]; in comparison with MMAF, various carcinoma cell lines): greater by several orders of magnitude
11 | CC[C@H](C)[C@@H]([C@@H](CC(=O)N1CCC[C@H]1[C@H](OC)[C@@H](C)C(=O)N[C@H](C)[C@@H](O)c1ccccc1)OC)N(C)C(=O)[C@@H](NC(=O)[C@@H](NC)C(C)C)C(C)C [monomethyl auristatin E (MMAE), monomethyl auristatin E, reference compound] (H-[NMeV]V[Dil][Dolaproine]-X5) | 7.3 ×10⁻⁶ cm/s | –
12 | CC[C@H](C)[C@@H]([C@@H](CC(=O)N1CCC[C@H]1[C@H](OC)[C@@H](C)C(=O)N[C@@H](Cc1ccccc1)C(=O)O)OC)N(C)C(=O)[C@@H](NC(=O)[C@@H](NC)C(C)C)C(C)C [monomethyl auristatin F (MMAF), monomethyl auristatin F, reference compound] (H-[NMeV]V[Dil][Dolaproine]F-OH) | 7.3 ×10⁻⁶ cm/s | –
